Experimental data: patent publication US20250381179A1, “CHROMAN-BASED COMPOUNDS FOR TREATING CANCER” (priority 2024, published 2025)

Assay: Phase 1 study: safety and tolerability (TEAEs, NCI CTCAE v5.0)
Description: The study employed an open-label, 3+3 design, with the option of adding backfill patients to each cohort cleared and deemed safe. […] Tumor responses were assessed every 2 cycles using RECIST v1.1 criteria. […] The study also involves an ongoing dose escalation study where participants receive 100 mg, 200 mg, 300 mg, 400 mg, and 600 mg once daily (QD) dose levels.
Safety was assessed through the analysis of the reported incidence of treatment-emergent AEs. Treatment-emergent AEs are those with an onset on or after the initiation of therapy and will be graded according to NCI CTCAE Version 5.0. Other safety endpoints, including laboratory results, vital signs, and ECG findings, were summarized for all patients in the Safety set.

O=C1CC[C@H](N2Cc3cc(N4CCN(CC5CCN(c6ccc([C@@H]7c8ccc(O)cc8OC[C@@H]7c7ccccc7)cc6F)CC5)CC4)ccc3C2=O)C(=O)N1 [compound (1-g), (S)-3-(5-(4-((1-(2-fluoro-4-((3S,4R)-7-hydroxy-3-phenylchroman-4-yl)phenyl)piperidin-4-yl)methyl)piperazin-1-yl)-1-oxoisoindolin-2-yl)piperidine-2,6-dione]
Patients with Any Compound (1-g) related TEAE (100 mg QD (N = 4)): 2 (50.0) n (%)
Patients with Any TEAE (100 mg QD (N = 4)): 4 (100) n (%)
TEAE: Abdominal Distension (100 mg QD (N = 4)): 0 n (%)
TEAE: Abdominal Pain (100 mg QD (N = 4)): 1 (25.0) n (%)
TEAE: Acute Kidney Injury (100 mg QD (N = 4)): 0 n (%)
TEAE: Adrenal Insufficiency (100 mg QD (N = 4)): 0 n (%)
TEAE: Alopecia (100 mg QD (N = 4)): 0 n (%)
TEAE: Anaemia (100 mg QD (N = 4)): 0 n (%)
TEAE: Anxiety (100 mg QD (N = 4)): 0 n (%)
TEAE: Arthralgia (100 mg QD (N = 4)): 0 n (%)
TEAE: Axillary Vein Thrombosis (100 mg QD (N = 4)): 0 n (%)
TEAE: Back Pain (100 mg QD (N = 4)): 0 n (%)
TEAE: Basal Cell Carcinoma (100 mg QD (N = 4)): 1 (25.0) n (%)
TEAE: Breast Pain (100 mg QD (N = 4)): 0 n (%)
TEAE: Confusional State (100 mg QD (N = 4)): 1 (25.0) n (%)
TEAE: Constipation (100 mg QD (N = 4)): 0 n (%)
TEAE: Cough (100 mg QD (N = 4)): 0 n (%)
TEAE: Covid-19 Pneumonia (100 mg QD (N = 4)): 1 (25.0) n (%)
TEAE: Dehydration (100 mg QD (N = 4)): 3 (75.0) n (%)
TEAE: Diarrhoea (100 mg QD (N = 4)): 1 (25.0) n (%)
TEAE: Dizziness (100 mg QD (N = 4)): 0 n (%)
TEAE: Dysgeusia (100 mg QD (N = 4)): 0 n (%)
TEAE: Dyspepsia (100 mg QD (N = 4)): 1 (25.0) n (%)
TEAE: Dyspnoea (100 mg QD (N = 4)): 0 n (%)
TEAE: Dysuria (100 mg QD (N = 4)): 0 n (%)
TEAE: Eructation (100 mg QD (N = 4)): 0 n (%)
TEAE: Fall (100 mg QD (N = 4)): 1 (25.0) n (%)
TEAE: Fatigue (100 mg QD (N = 4)): 1 (25.0) n (%)
TEAE: Flatulence (100 mg QD (N = 4)): 0 n (%)
TEAE: Fracture (100 mg QD (N = 4)): 0 n (%)
TEAE: Fungal Infection (100 mg QD (N = 4)): 0 n (%)
TEAE: Haematoma (100 mg QD (N = 4)): 0 n (%)
TEAE: Hot Flush (100 mg QD (N = 4)): 1 (25.0) n (%)
TEAE: Hyperglycaemia (100 mg QD (N = 4)): 0 n (%)
TEAE: Hyperhidrosis (100 mg QD (N = 4)): 1 (25.0) n (%)
TEAE: Hypokalaemia (100 mg QD (N = 4)): 0 n (%)
TEAE: Hypotension (100 mg QD (N = 4)): 0 n (%)
TEAE: Influenza Like Illness (100 mg QD (N = 4)): 0 n (%)
TEAE: Insomnia (100 mg QD (N = 4)): 1 (25.0) n (%)
TEAE: Lower Respiratory Tract Congestion (100 mg QD (N = 4)): 0 n (%)
TEAE: Lymphocyte Count Decreased (100 mg QD (N = 4)): 0 n (%)
TEAE: Muscle Spasm (100 mg QD (N = 4)): 0 n (%)
TEAE: Muscular Weakness (100 mg QD (N = 4)): 0 n (%)
TEAE: Musculoskeletal Stiffness (100 mg QD (N = 4)): 0 n (%)
TEAE: Nail Disorder (100 mg QD (N = 4)): 0 n (%)
TEAE: Nasal Congestion (100 mg QD (N = 4)): 0 n (%)
TEAE: Nausea (100 mg QD (N = 4)): 1 (25.0) n (%)
TEAE: Neutrophil Count Decreased (100 mg QD (N = 4)): 1 (25.0) n (%)
TEAE: Oedema Peripheral (100 mg QD (N = 4)): 0 n (%)
TEAE: Ophthalmic Migraine (100 mg QD (N = 4)): 0 n (%)
TEAE: Oral Pain (100 mg QD (N = 4)): 0 n (%)
TEAE: Pain In Extremity (100 mg QD (N = 4)): 0 n (%)
TEAE: Pharyngitis (100 mg QD (N = 4)): 0 n (%)
TEAE: Platelet Count Decreased (100 mg QD (N = 4)): 0 n (%)
TEAE: Pleural Effusion (100 mg QD (N = 4)): 0 n (%)
TEAE: Pneumonia (100 mg QD (N = 4)): 1 (25.0) n (%)
TEAE: Productive Cough (100 mg QD (N = 4)): 0 n (%)
TEAE: Rash Maculo-Papular (100 mg QD (N = 4)): 1 (25.0) n (%)
TEAE: Rhinitis Allergic (100 mg QD (N = 4)): 0 n (%)
TEAE: Rib Fracture (100 mg QD (N = 4)): 1 (25.0) n (%)
TEAE: Seizure (100 mg QD (N = 4)): 0 n (%)
TEAE: Sepsis (100 mg QD (N = 4)): 0 n (%)
TEAE: Tremor (100 mg QD (N = 4)): 1 (25.0) n (%)
TEAE: Upper Respiratory Tract Infection (100 mg QD (N = 4)): 1 (25.0) n (%)
TEAE: Urinary Tract Infection (100 mg QD (N = 4)): 0 n (%)
TEAE: Vaginal Haemorrhage (100 mg QD (N = 4)): 0 n (%)
TEAE: Vomiting (100 mg QD (N = 4)): 0 n (%)
related TEAE: Alopecia (100 mg QD (N = 4)): 0 n (%)
related TEAE: Arthralgia (100 mg QD (N = 4)): 0 n (%)
related TEAE: Constipation (100 mg QD (N = 4)): 0 n (%)
related TEAE: Diarrhea (100 mg QD (N = 4)): 1 (25.0) n (%)
related TEAE: Dysgeusia (100 mg QD (N = 4)): 0 n (%)
related TEAE: Eructation (100 mg QD (N = 4)): 0 n (%)
related TEAE: Fatigue (100 mg QD (N = 4)): 0 n (%)
related TEAE: Flatulence (100 mg QD (N = 4)): 0 n (%)
related TEAE: Hot Flush (100 mg QD (N = 4)): 1 (25.0) n (%)
related TEAE: Hyperhidrosis (100 mg QD (N = 4)): 0 n (%)
related TEAE: Nail Disorder (100 mg QD (N = 4)): 0 n (%)
related TEAE: Nausea (100 mg QD (N = 4)): 1 (25.0) n (%)
related TEAE: Neutrophil Count Decreased (100 mg QD (N = 4)): 1 (25.0) n (%)
related TEAE: Platelet Count Decreased (100 mg QD (N = 4)): 0 n (%)
related TEAE: Tremor (100 mg QD (N = 4)): 1 (25.0) n (%)
related TEAE: Vomiting (100 mg QD (N = 4)): 0 n (%)
Patients with Any Compound (1-g) related TEAE (200 mg QD (N = 12)): 3 (25.0) n (%)
Patients with Any TEAE (200 mg QD (N = 12)): 11 (91.7) n (%)
TEAE: Abdominal Distension (200 mg QD (N = 12)): 0 n (%)
TEAE: Abdominal Pain (200 mg QD (N = 12)): 1 (8.3) n (%)
TEAE: Acute Kidney Injury (200 mg QD (N = 12)): 0 n (%)
TEAE: Adrenal Insufficiency (200 mg QD (N = 12)): 1 (8.3) n (%)
TEAE: Alopecia (200 mg QD (N = 12)): 0 n (%)
TEAE: Anaemia (200 mg QD (N = 12)): 1 (8.3) n (%)
TEAE: Anxiety (200 mg QD (N = 12)): 0 n (%)
TEAE: Arthralgia (200 mg QD (N = 12)): 2 (16.7) n (%)
TEAE: Axillary Vein Thrombosis (200 mg QD (N = 12)): 1 (8.3) n (%)
TEAE: Back Pain (200 mg QD (N = 12)): 1 (8.3) n (%)
TEAE: Basal Cell Carcinoma (200 mg QD (N = 12)): 0 n (%)
TEAE: Breast Pain (200 mg QD (N = 12)): 1 (8.3) n (%)
TEAE: Confusional State (200 mg QD (N = 12)): 0 n (%)
TEAE: Constipation (200 mg QD (N = 12)): 1 (8.3) n (%)
TEAE: Cough (200 mg QD (N = 12)): 1 (8.3) n (%)
TEAE: Covid-19 Pneumonia (200 mg QD (N = 12)): 0 n (%)
TEAE: Dehydration (200 mg QD (N = 12)): 1 (8.3) n (%)
TEAE: Diarrhoea (200 mg QD (N = 12)): 0 n (%)
TEAE: Dizziness (200 mg QD (N = 12)): 0 n (%)
TEAE: Dysgeusia (200 mg QD (N = 12)): 0 n (%)
TEAE: Dyspepsia (200 mg QD (N = 12)): 0 n (%)
TEAE: Dyspnoea (200 mg QD (N = 12)): 1 (8.3) n (%)
TEAE: Dysuria (200 mg QD (N = 12)): 1 (8.3) n (%)
TEAE: Eructation (200 mg QD (N = 12)): 0 n (%)
TEAE: Fall (200 mg QD (N = 12)): 1 (8.3) n (%)
TEAE: Fatigue (200 mg QD (N = 12)): 2 (16.7) n (%)
TEAE: Flatulence (200 mg QD (N = 12)): 0 n (%)
TEAE: Fracture (200 mg QD (N = 12)): 1 (8.3) n (%)
TEAE: Fungal Infection (200 mg QD (N = 12)): 0 n (%)
TEAE: Haematoma (200 mg QD (N = 12)): 0 n (%)
TEAE: Hot Flush (200 mg QD (N = 12)): 1 (8.3) n (%)
TEAE: Hyperglycaemia (200 mg QD (N = 12)): 1 (8.3) n (%)
TEAE: Hyperhidrosis (200 mg QD (N = 12)): 1 (8.3) n (%)
TEAE: Hypokalaemia (200 mg QD (N = 12)): 1 (8.3) n (%)
TEAE: Hypotension (200 mg QD (N = 12)): 0 n (%)
TEAE: Influenza Like Illness (200 mg QD (N = 12)): 1 (8.3) n (%)
TEAE: Insomnia (200 mg QD (N = 12)): 1 (8.3) n (%)
TEAE: Lower Respiratory Tract Congestion (200 mg QD (N = 12)): 1 (8.3) n (%)
TEAE: Lymphocyte Count Decreased (200 mg QD (N = 12)): 1 (8.3) n (%)
TEAE: Muscle Spasm (200 mg QD (N = 12)): 0 n (%)
TEAE: Muscular Weakness (200 mg QD (N = 12)): 1 (8.3) n (%)
TEAE: Musculoskeletal Stiffness (200 mg QD (N = 12)): 1 (8.3) n (%)
TEAE: Nail Disorder (200 mg QD (N = 12)): 0 n (%)
TEAE: Nasal Congestion (200 mg QD (N = 12)): 1 (8.3) n (%)
TEAE: Nausea (200 mg QD (N = 12)): 1 (8.3) n (%)
TEAE: Neutrophil Count Decreased (200 mg QD (N = 12)): 1 (8.3) n (%)
TEAE: Oedema Peripheral (200 mg QD (N = 12)): 0 n (%)
TEAE: Ophthalmic Migraine (200 mg QD (N = 12)): 1 (8.3) n (%)
TEAE: Oral Pain (200 mg QD (N = 12)): 0 n (%)
TEAE: Pain In Extremity (200 mg QD (N = 12)): 1 (8.3) n (%)
TEAE: Pharyngitis (200 mg QD (N = 12)): 1 (8.3) n (%)
TEAE: Platelet Count Decreased (200 mg QD (N = 12)): 0 n (%)
TEAE: Pleural Effusion (200 mg QD (N = 12)): 0 n (%)
TEAE: Pneumonia (200 mg QD (N = 12)): 1 (8.3) n (%)
TEAE: Productive Cough (200 mg QD (N = 12)): 1 (8.3) n (%)
TEAE: Rash Maculo-Papular (200 mg QD (N = 12)): 1 (8.3) n (%)
TEAE: Rhinitis Allergic (200 mg QD (N = 12)): 0 n (%)
TEAE: Rib Fracture (200 mg QD (N = 12)): 0 n (%)
TEAE: Seizure (200 mg QD (N = 12)): 1 (8.3) n (%)
TEAE: Sepsis (200 mg QD (N = 12)): 1 (8.3) n (%)
TEAE: Tremor (200 mg QD (N = 12)): 0 n (%)
TEAE: Upper Respiratory Tract Infection (200 mg QD (N = 12)): 1 (8.3) n (%)
